The target in one series is T1, IRAK4 (Homo sapiens, UniProt Q9NWZ3).
T1 construct: expressed in transfected cells; host or cells: K562 IRAK4-HiBiT cells
T1 sequence (Q9NWZ3 1-460): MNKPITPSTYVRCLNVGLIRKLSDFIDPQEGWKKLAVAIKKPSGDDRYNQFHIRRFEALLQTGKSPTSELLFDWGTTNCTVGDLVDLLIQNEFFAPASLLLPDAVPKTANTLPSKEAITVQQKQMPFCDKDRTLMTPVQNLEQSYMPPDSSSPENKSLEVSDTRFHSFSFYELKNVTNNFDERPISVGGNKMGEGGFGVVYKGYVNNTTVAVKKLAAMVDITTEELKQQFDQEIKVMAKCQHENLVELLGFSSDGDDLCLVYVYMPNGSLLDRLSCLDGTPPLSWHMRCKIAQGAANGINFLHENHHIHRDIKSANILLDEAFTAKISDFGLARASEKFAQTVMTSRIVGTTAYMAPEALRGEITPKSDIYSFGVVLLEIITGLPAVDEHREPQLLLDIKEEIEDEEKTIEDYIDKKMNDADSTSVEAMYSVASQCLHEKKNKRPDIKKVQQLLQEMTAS
Briefly: Target protein degradation in K562 IRAK4-HiBiT cells (Nano-Glo HiBiT). The format is cell-based. As to conditions: 16 to 18 hours; for Dmax: read-out: Maximum degradation rate. The procedure: Experimental objective: The experiment aims to evaluate the degradation effect of the test compounds on the target protein IRAK4 in K562 IRAK4-HiBiT cells.
• Cells: K562 IRAK4-HiBiT cells • Culture medium: RPMI 1640+10% fetal bovine serum+2 mM glutamine+1 mM sodium pyruvate+penicillin/streptomycin. • Positive control: 1000 nM; negative control: 0.1% DMSO.
• (1). The powder of the compound to be tested was dissolved in DMSO to a storage concentration of 10 mM. A total of 9 μL of the 10 mM of the compound to be tested was manually pipetted into the 1st and 13th columns of the LDV plate using a pipettor; • (2). A volume of 6 μL of DMSO was added to columns 2-12 and 14-24 using a Multidrop Combi; • (3). A 3-fold dilution of the test compounds (3 μL+6 μL) was performed using Bravo, for columns 1-11 and 13-23; • (4). According to the plate layout, 25 nL of compound solution (columns 1-24 of the LDV plate) was transferred to the experimental plate using Echo; • (5) 25 nL of the 1 mM positive control solution was transferred to the assay plate as a 100% degradation control (i.e. LC, HPE), and 25 nL of DMSO was transferred to the assay plate as a 0% control (i.e. HC, ZPE).
• (1) The culture medium was discarded, and the cells were washed once with DPBS, digested with trypsin, counted, and prepared into a cell suspension of […]. • (2) Using the MultiDrop Combi at a medium speed, 25 μL/well of the cell suspension was added to the experimental plate containing the test compounds; • (3) The experimental plate containing cells was returned to the incubator and cultured for 16 to 18 hours at 37° C. and 5% CO2.
• (1). Using the MultiDrop Combi at a high speed, 25 μL/well of the assay reagent (NanoGlo lytic solution+substrate+LgBit protein) was added to the assay plate, followed by shaking for 10 minutes; • (2) The plate was centrifuged at 2000 rpm for 1 minute to remove any bubbles; • (3) Readings were obtained by using an Envision, US Luminescence reader.
To calculate the degradation rate (DR) of the test compounds, the following formula is used: IR (%)=(RLU vehicle control−RLU compound)/(RLU vehicle control−RLU positive control)×100%. The solvent control refers to the blank control. The degradation rates of compounds at different concentrations were calculated in Excel, and then XLFit software was used to plot inhibition curves and calculate relevant parameters, including minimum degradation rate, maximum degradation rate, and DC50.
In general terms: The HiBiT peptide binds its large partner to form an active luciferase.

The next series has as its target T2, IKZF1 (Homo sapiens, UniProt Q13422+Q96SW2).
T2 construct: host or cells: MM.1S cells
The series is described as follows: In Cell Western of IKZF1 protein expression level in MM.1S cells. The format is cell-based. The conditions noted are these: IKZF1, MM.1S cells, 24 hours; for Dmax: MM1.S, read-out: Maximum degradation rate Dmax. The procedure:
Experimental objective: The experiment aims to assess the degradation effect of the test compounds on IKZF1 and 1KZF3 proteins in MM.1S cells by evaluating the impact of the test compounds on the expression levels of IKZF1 and IZKZF3 proteins in MM.1S cells.
• Cell lines: MMN.1 S cell (sourced from ATCC; Cat. No CRL-2974) • Negative control: 0.100 DMSO.
• 1) Log phase MM.1 S cells were plated in a 96-well plate at 1.2×10^5 cells per well and cultured overnight; • 2) The next day, compounds were added with a starting concentration of 300 nM, diluted threefold across three replicate wells for 10 concentration gradients (including DMSO), and the cells were incubated for 24 hours in an incubator; • 3) The cells were centrifuged, and the supernatant was carefully removed. 150 μL of 4% paraformaldehyde fixative was added along the wall of the wells, avoiding contact with the bottom cells, and the cells were incubated at room temperature for 20 minutes; • 4) Lysis buffer was prepared by mixing 0.5 mL of 10% Triton X-100 with 49.5 mL of PBS until homogenous; • 5) 200 μL of lysis buffer was added along the well walls, again avoiding the bottom cells, and incubated on a shaker at room temperature for 5 minutes; • 6) The wells were washed four times; • 7) 150 μL of Licor […] Blocking Buffer was added along the well walls, avoiding the bottom cells, and the cells were incubated on a shaker at room temperature for 1.5 hours; • 8) Ikaros (D6N9Y) Rabbit mAb, Aiolos (D1C1E) Rabbit mAb and GAPDH mouse mAb (proteintech, 60004-1-Ig) were diluted at a 1:100 ratio using antibody dilution buffer; • 9) 50 μL of mixed antibody was added to each well with three replicate wells, and the cells were incubated overnight on a shaker at 4° C.; • 10) PBST (PBS with 0.1% Tween 20) was prepared; • 11) The primary antibodies were removed, and 200 μL of PBST was added along the well walls, avoiding the bottom cells, and the cells were incubated on a shaker at room temperature for 5 minutes; • 12) The wells were washed four times; • 13) Secondary antibody dilution buffer was prepared by adding Tween 20 to Licor […] Blocking Buffer to a final concentration of 0.2%; • 14) Fluorescent secondary antibodies were diluted in the dark at a 1:800 ratio. To 400 μL of secondary antibody dilution solution, 0.5 μL of each IRDye 800CW and IRDye 680CW (corresponding to the primary antibodies) was added. • 15) 50 μL of the diluted fluorescent secondary antibodies was added to each well and the cells were incubated on a shaker at room temperature in the dark for 60 minutes; • 16) The secondary antibodies were removed, and 200 μL of PBST was added along the well walls, avoiding the bottom cells, and the cells were incubated on a shaker at room temperature in the dark for 5 minutes; • 17) The wells were washed four times; immediately after washing, the Odyssey Gel Imaging System was used for detection at dual wavelengths of 700 nm and 800 nm.
Using GraphPad Prism 6 software, inhibition rate data was entered to fit the curve and calculate the DC50 value.

Series [1] is described as follows: Pharmacokinetic evaluation in mice. The format is in vivo, C57BL/6N or CD-1 male mice. The conditions noted are these: intragastric administration 10 mg/kg, experimental operation A, fasted overnight. From the text: In this study, C57BL/6N or CD-1 male mice were selected as test animals, and LC/MS/MS method was used to quantify plasma concentrations of the test compound intravenously injected or gavage to mice at different time points, so as to evaluate the pharmacokinetic profile of the compounds of the present disclosure in mice.
C57BL/6N mice (male, 20 to 30 g, 7 to 10 weeks old, Beijing VitalRiver) or CD-1 mice (male, 20 to 35 g, 7 to 10 weeks old, Beijing VitalRiver).
• The test compounds, either as clear or suspension solutions, were administered intravenously through the tail vein to C57BL/6N mice or CD-1 mice (either fasted overnight or fed) (vehicle: 10% DMSO/10% solutol/80% H2O or 5% DMSO/10% solutol/85% H2O), or intragastrically administered to C57BL/6N mice or CD-1 mice (either fasted overnight or fed). For intravenous injection, blood 50 μL was collected via the cheek vein puncture at 0 h (pre-administration), 0.083, 0.25, 0.5, 1, 2, 4, 6, 8, and 24 h after administration, and placed in an anticoagulant tube added with heparin sodium. The mixture was thoroughly vortexed and mixed, and centrifuged at 6000 g for 3 minutes at 2-8° C. For oral administration, blood was collected via the cheek vein puncture at 0 h (pre-administration), 0.083, 0.25, 0.5, 1, 2, 4, 6, 8, and 24 h after administration, and placed in an anticoagulant tube added with heparin sodium. The mixture was thoroughly vortexed and mixed, and centrifuged at 6000 g for 3 minutes at 2-8° C. Plasma concentrations were determined by LC-MS/MS method, and relevant pharmacokinetic parameters were calculated using Phoenix WinNonlin8.2.0 pharmacokinetic software with non-compartmental model linear-log trapezoidal method.
• The test compounds, as clear solutions, were administered intravenously through the tail vein to CD-1 mice (fasted overnight) (vehicle: 10% DMSO/10% solutol/80% H2O or 5% DMSO/10% solutol/85% H2O), or intragastrically administered to CD-1 mice (fasted overnight). For intravenous injection, blood was collected via the saphenous vein puncture at 0 h (pre-administration), 0.083, 0.25, 0.5, 1, 2, 4, 8, and 24 h after administration, and placed in a EDTA-K2 anticoagulant tube. The mixture was thoroughly vortexed and mixed, and centrifuged at 3200 g for 10 minutes at 4° C. to obtain plasma. For oral administration, blood was collected via the saphenous vein puncture at 0 h (pre-administration), 0.083, 0.25, 0.5, 1, 2, 4, 8, and 24 h after administration, and placed in a EDTA-K2 anticoagulant tube. The mixture was thoroughly vortexed and mixed, and centrifuged at 3200 g for 10 minutes at 4° C. to obtain plasma. Plasma concentrations were determined by LC-MS/MS method, and relevant pharmacokinetic parameters were calculated using Phoenix WinNonlin 6.3 pharmacokinetic software with non-compartmental model linear-log trapezoidal method.

Where a name gives a salt, the structure may show the parent alone.

T2 sequence (Q13422 whole entry): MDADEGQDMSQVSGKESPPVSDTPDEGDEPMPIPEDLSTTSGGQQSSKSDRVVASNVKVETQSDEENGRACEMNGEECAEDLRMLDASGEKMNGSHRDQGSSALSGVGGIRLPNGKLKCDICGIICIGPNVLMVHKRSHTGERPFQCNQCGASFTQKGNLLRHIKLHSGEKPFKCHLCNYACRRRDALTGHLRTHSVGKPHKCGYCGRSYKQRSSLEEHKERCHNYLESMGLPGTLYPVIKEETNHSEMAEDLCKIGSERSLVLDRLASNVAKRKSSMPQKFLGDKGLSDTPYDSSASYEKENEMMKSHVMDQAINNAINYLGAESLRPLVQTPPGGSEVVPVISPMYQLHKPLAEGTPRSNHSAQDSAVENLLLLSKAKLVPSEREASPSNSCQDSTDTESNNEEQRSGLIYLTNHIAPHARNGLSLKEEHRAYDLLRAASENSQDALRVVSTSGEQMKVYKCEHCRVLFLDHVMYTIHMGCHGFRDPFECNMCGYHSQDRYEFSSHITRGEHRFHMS
T2 sequence (Q96SW2 whole entry): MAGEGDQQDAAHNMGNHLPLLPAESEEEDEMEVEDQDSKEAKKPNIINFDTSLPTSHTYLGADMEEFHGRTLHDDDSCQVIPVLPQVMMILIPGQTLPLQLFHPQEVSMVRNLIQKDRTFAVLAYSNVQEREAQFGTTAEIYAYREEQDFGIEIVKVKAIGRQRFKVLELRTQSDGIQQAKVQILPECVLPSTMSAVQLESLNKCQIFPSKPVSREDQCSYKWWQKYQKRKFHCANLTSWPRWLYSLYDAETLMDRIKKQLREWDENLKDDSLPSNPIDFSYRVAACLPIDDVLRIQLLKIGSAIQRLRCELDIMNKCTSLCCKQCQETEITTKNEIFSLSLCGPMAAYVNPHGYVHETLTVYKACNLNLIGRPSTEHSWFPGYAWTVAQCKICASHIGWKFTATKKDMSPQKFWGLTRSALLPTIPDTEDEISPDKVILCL
T2 sequence (Q16531 whole entry partner): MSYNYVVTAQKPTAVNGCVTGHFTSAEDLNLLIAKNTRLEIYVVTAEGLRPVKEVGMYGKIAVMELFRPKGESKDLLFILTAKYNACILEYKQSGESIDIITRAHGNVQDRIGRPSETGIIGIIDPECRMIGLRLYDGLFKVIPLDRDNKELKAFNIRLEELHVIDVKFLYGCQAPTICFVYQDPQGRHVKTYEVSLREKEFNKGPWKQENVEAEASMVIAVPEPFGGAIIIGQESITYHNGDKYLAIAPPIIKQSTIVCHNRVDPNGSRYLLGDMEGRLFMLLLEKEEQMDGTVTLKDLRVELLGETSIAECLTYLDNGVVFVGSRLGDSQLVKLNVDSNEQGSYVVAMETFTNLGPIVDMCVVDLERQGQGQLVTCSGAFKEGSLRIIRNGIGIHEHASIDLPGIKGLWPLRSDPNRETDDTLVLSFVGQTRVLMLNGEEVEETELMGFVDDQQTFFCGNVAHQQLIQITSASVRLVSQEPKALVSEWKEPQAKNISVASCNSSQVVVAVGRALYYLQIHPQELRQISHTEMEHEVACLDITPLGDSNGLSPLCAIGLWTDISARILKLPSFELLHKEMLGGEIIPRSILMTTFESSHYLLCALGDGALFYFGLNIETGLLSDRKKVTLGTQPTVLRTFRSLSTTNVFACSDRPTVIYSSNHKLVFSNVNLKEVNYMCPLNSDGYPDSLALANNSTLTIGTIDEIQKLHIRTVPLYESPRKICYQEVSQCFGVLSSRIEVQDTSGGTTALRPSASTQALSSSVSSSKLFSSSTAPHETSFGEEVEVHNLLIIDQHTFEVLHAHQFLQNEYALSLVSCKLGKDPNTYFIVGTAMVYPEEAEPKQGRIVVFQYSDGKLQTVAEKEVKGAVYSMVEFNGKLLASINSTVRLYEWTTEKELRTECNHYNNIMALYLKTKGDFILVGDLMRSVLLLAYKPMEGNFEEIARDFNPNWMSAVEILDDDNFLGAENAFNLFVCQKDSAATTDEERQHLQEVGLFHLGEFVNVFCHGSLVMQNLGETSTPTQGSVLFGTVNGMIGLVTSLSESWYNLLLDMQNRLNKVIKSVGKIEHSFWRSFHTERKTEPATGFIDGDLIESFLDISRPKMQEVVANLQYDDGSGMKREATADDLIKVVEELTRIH

In the case of `CN(CCCOCCCc1cccc2c1ccc1occ(C3CCC(=O)NC3=O)c12)CC1CCC(n2cc(NC(=O)c3coc(-c4ccnc(NCC5CC5)c4)n3)c(C(F)F)n2)CC1` (stereo not shown) [Trifluoroacetate of WX010], on IRAK4, the DC50 was 50.2 nM and the Dmax is 81.7%.
Turning to `O=C1CCC(c2noc3ccc4cc(NC(=O)CN5CCN(CC6CCC(n7cc(NC(=O)c8coc(-c9ccnc(NCC%10CC%10)c9)n8)c(C(F)F)n7)CC6)CC5)ccc4c23)C(=O)N1` (stereo not shown) [Hydrochloride of WX015], at IRAK4, the DC50 worked out at 47.1 nM and the Dmax was 100%. At IKZF1, the DC50 was 7.7 nM and the Dmax was 81.8%.
Turning to `O=C1CCC(c2coc3ccc4cc(NC(=O)CN5CCN(C[C@H]6CC[C@H](n7cc(NC(=O)c8coc(-c9ccnc(NCC%10CC%10)c9)n8)c(C(F)F)n7)CC6)CC5)ccc4c23)C(=O)N1` (stereo partly shown) [WX007], on IRAK4, the DC50 was found to be 35.1 nM and the Dmax is 97.4%.
Regarding `O=C1CCC(c2noc3c(NC(=O)C(F)(F)C4CCN(C[C@H]5CC[C@H](n6cc(NC(=O)c7coc(-c8ccnc(NCC9CC9)c8)n7)c(C(F)F)n6)CC5)CC4)cccc23)C(=O)N1` (stereo partly shown) [Formate of WX024], on IRAK4, the DC50 came out at 1.75 nM and the Dmax worked out at 117%. For the same compound, on IKZF1, the DC50 is 35.2 nM and the Dmax worked out at 60.8%.
Regarding `O=C1CCC(c2coc3ccc(NC(=O)CN4CCN(C[C@H]5CC[C@H](n6cc(NC(=O)c7coc(-c8ccnc(NCC9CC9)c8)n7)c(C(F)F)n6)CC5)CC4)cc23)C(=O)N1` (stereo partly shown) [Hydrochloride of WX001], at IRAK4, the DC50 worked out at 76.4 nM and the Dmax was 54.3%.
In the case of `CC(C)(O)c1cc2nc([C@H]3CC[C@H](CN4CCC(C(F)(F)C(=O)Nc5cccc6c(C7CCC(=O)NC7=O)noc56)CC4)CC3)sc2cc1NC(=O)c1cccc(C(F)(F)F)n1` (stereo partly shown) [Formate of WX023], the DC50 was 7.16 nM on IRAK4 and 31.3 nM at IKZF1. Further, the Dmax turned out to be 114% at IRAK4 and 57.2% at IKZF1.
Turning to `CC(C)(O)c1cc2nc([C@H]3CC[C@H](CN4CCC(C(F)(F)C(=O)Nc5cccc6c5ccc5onc(C7CCC(=O)NC7=O)c56)CC4)CC3)sc2cc1NC(=O)c1cccc(C(F)(F)F)n1` (stereo partly shown) [Formate of WX019], on IRAK4, the DC50 came out at 15.1 nM and the Dmax turned out to be 92%. In addition, in series [1], the “Area under drug-time curve (0-inf)” value came to 5.10 µM·h, the Peak concentration was determined as 0.34 µM and the “Time to peak concentration” value came out at 3.33 h.
For `CC(C)(O)c1cc2nc([C@H]3CC[C@H](CN4CCN(CC(=O)Nc5cccc6c(C7CCC(=O)NC7=O)noc56)CC4)CC3)sc2cc1NC(=O)c1cccc(C(F)(F)F)n1` (stereo partly shown) [Formate of WX029], on IRAK4, the DC50 was found to be 4.26 nM and the Dmax was 112%. For the same compound, at IKZF1, the DC50 is 38.8 nM and the Dmax is 61.8%.
Take `CC(C)(O)c1cc2nc([C@H]3CC[C@H](CN4CC5(CC(CCNc6ccc7c(ccc8onc(C9CCC(=O)NC9=O)c87)c6)C5)C4)CC3)sc2cc1NC(=O)c1cccc(C(F)(F)F)n1` (stereo partly shown) [WX021]: at IKZF1, the DC50 stood at 2.66 nM and the Dmax worked out at 87.6%.
For `CN(CCCOCCCc1cccc2c1ccc1onc(C3CCC(=O)NC3=O)c12)CC1CCC(n2cc(NC(=O)c3coc(-c4ccnc(NCC5CC5)c4)n3)c(C(F)F)n2)CC1` (stereo not shown) [Hydrochloride of WX013], at IRAK4, the DC50 was 48.7 nM and the Dmax stood at 101%.
